Patent US20250281499A1, “FUSED AMINO PYRIMIDINE COMPOUNDS FOR TREATMENT OF NEUROPATHIC AND NEURO-INFLAMMATORY PAIN” (Ovid Therapeutics Inc., priority 2024, published 2025)

Molecular target: T1, KCC2 (Homo sapiens, UniProt Q9H2X9)
T1 construct: expressed in transfected cells; host or cells: HEK-293 (ATCC CRL-1573), Lipofectamine 2000, used 48-72 h after transfection
T1 sequence (Q9H2X9 1-1116 isoform Q9H2X9-2): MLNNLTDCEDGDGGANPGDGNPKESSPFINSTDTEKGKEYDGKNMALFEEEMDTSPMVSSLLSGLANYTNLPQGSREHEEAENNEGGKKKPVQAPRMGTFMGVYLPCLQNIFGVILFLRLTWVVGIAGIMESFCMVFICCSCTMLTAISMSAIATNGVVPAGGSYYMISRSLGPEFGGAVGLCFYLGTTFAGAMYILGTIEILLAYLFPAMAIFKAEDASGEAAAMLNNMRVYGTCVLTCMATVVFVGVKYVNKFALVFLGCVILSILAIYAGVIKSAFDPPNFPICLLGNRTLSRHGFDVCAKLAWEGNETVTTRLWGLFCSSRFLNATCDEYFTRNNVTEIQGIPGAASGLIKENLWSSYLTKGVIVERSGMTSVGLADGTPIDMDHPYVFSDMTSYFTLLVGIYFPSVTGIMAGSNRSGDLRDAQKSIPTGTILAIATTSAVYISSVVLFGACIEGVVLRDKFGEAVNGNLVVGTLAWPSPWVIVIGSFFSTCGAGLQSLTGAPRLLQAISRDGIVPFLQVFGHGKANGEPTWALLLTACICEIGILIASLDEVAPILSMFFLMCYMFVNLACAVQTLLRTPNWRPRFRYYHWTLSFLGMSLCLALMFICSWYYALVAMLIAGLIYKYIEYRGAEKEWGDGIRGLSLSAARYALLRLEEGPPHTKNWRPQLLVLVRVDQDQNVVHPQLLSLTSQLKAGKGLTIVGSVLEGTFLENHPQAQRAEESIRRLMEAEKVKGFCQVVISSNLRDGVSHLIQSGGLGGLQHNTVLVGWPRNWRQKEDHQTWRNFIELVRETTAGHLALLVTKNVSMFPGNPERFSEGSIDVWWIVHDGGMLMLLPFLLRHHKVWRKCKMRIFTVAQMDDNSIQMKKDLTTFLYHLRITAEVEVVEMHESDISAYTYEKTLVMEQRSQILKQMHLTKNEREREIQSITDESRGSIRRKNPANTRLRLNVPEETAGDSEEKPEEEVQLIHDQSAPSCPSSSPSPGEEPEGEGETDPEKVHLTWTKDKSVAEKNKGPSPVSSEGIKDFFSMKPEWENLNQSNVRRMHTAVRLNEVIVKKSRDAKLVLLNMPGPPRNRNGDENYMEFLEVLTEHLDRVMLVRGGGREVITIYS
Assay: FLIPR thallium (Tl+) flux assay in HEK-293 cells expressing KCC2
Type: cell-based
Conditions: saturating concentration of 3 μM, 1% BCD vehicle
Method: A multi-tiered high-throughput screening assay was used, leveraging a proprietary library of 1.3 million small molecule compounds from AstraZeneca (Cambridge, UK) to identify chemical entities capable of activating KCC2. A single point concentration of 30 μM was used to identify potassium flux using an established thallium (TI+) influx FLIPR assay as the primary read out in HEK-293 cells overexpressing KCC2 (Cardarelli et al., Nat. Med. 23, 1394-1396 (2017); Conway et al., J Biol Chem 292, 21253-21263 (2017); Lee et al., 2022, supra).
Cell Culture and biotinylation. […]
FLIPR TI Flux assay. HEK-293 cells were washed with HBSS, and then incubated with loading buffer containing TI sensitive fluorescent dye (https://www.moleculardevices.com), 20 μM bumetanide 20 μM ouabain and 2.5 mM probenecid for 1 h at room temperature (RT) under control conditions or with drugs in the dark using a FlexStation 3 microplate reader (Molecular Devices) and imaged […] for 30 min. Stimulus buffer was added containing 5 mM K^+/0.5 mM Tl^+ and cells were imaged every 1.5 over a 190 second time course The initial rate Tl^+ uptake (Relative Fluorescence Units (RFU) per second) was determined following addition of the stimulus buffer as outlined previously (Conway et al., 2017, supra) (Lee et al., 2022, supra). […]

## C[C@@H]1CN(c2nc3c(c(Nc4ccc(C5CCCCC5)cc4)n2)COC3)CCO1 [Compound A, (R)—N-(4-cyclohexylphenyl)-2-(2-methylmorpholino)-5,7-dihydrofuro[3,4-d]pyrimidin-4-amine]
  maximum potentiation of KCC2: 90%
